Converted amounts (≈) assume the structure as drawn.
Columns and labels:
Pantothenate synthetase [1] = target: T1, Pantothenate synthetase (Mycobacterium tuberculosis, UniProt P9WIL5); experiment: Inhibition of Mycobacterium tuberculosis Pantothenate synthetase
T1 sequence (P9WIL5 whole entry): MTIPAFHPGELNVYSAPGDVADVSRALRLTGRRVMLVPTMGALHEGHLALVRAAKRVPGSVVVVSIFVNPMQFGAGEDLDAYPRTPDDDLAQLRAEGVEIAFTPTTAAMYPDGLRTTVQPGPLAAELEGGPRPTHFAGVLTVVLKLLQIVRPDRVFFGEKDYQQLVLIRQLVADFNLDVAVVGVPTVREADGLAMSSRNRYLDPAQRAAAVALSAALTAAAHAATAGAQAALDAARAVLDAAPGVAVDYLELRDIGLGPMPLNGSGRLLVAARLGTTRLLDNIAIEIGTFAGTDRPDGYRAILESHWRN

[2] = Inhibition of Staphylococcus sp. APH(3')-3a
[3] = Inhibition of Saccharomyces cerevisiae sensor kinase Sln1
[4] = target: T2, Virulence sensor histidine kinase PhoQ (Salmonella typhimurium (strain LT2 / SGSC1412 / ATCC 700720), UniProt P0DM80); experiment: Inhibition of Salmonella typhimurium sensor kinase PhoQ; design: species or system Salmonella enterica subsp. enterica serovar Typhimurium
T2 sequence (P0DM80 whole entry): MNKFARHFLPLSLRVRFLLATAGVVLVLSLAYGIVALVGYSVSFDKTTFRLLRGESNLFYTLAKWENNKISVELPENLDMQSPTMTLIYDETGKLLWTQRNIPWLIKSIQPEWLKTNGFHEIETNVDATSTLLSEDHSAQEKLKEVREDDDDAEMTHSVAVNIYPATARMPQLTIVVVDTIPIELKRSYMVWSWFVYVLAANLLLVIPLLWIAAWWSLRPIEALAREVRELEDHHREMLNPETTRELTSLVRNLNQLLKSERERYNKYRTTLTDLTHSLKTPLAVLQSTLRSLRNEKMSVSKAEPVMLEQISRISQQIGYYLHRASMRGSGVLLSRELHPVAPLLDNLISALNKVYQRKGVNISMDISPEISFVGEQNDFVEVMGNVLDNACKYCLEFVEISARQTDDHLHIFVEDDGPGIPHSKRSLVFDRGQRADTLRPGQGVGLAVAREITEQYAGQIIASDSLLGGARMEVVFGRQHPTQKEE

[5] = Inhibition of Saccharomyces cerevisiae Hsp90
Staphylococcus sp. = experiment: Antimicrobial activity against Staphylococcus; assay type: functional
Enterococcus sp. = experiment: Antimicrobial activity against Enterococcus; assay type: functional
[6] = Inhibition of DNA gyrase
[7] = Inhibition of Escherichia coli ACCase
Haemophilus influenzae = experiment: Antimicrobial activity against Haemophilus influenzae after broth microdilution method; assay type: functional
[8] = Inhibition of bacteria biotin carboxylase
[9] = Inhibition of EnvZ by strand-transfer assay
[10] = Inhibition of Escherichia coli His6-tagged ParC/ParE expressed in baculovirus-infected Sf9 cells by gel electrophoresis
Pantothenate synthetase [11] = target: T1, Pantothenate synthetase; experiment: Binding affinity to Mycobacterium tuberculosis Pantothenate synthetase

**Q.** Which Ki (Pantothenate synthetase [1]) does the source give for `COCCC(O)C(=O)NS(=O)(=O)OC[C@H]1O[C@@H](n2cnc3c(N)ncnc32)[C@H](O)[C@@H]1O` (stereo partly specified) here?
**A.** The Ki was 300 nM.

**Q.** With `N=C(N)NCCNS(=O)(=O)c1cccc2cnccc12` as the compound, how does the Ki [2] read?
**A.** Its Ki is 49 µM.

**Q.** For `C[C@@H]1C[C@H]2O[C@@H]2/C=C\C=C\C(=O)Cc2c(Cl)c(O)cc(O)c2C(=O)O1` [RADICICOL], which IC50 [3] is on record?
**A.** The IC50 was 127 µM.

**Q.** And the Kd [4]?
**A.** The Kd was 715 µM.

**Q.** What about the Kd [5] of the same compound?
**A.** Its Kd is 19 nM.

**Q.** With `COC(=O)C1CCCC(NCc2n[nH]c3cccc(OCc4cc(Cl)cc(Cl)c4)c23)C1` (stereo unspecified) as the compound, how does the MIC (Staphylococcus sp.) read?
**A.** The MIC was 4 µg/mL (≈ 8.65 µM).

**Q.** What about the MIC (Enterococcus sp.) of the same compound?
**A.** The MIC was 4 µg/mL (≈ 8.65 µM).

**Q.** What about the IC50 [6] of the same compound?
**A.** The IC50 was 0.25 µg/mL (≈ 0.541 µM).

**Q.** What does the source list for `Nc1ncc2cc(-c3c(Br)cccc3Br)c(N)nc2n1`?
**A.** IC50 [7]: < 5 nM; MIC (Haemophilus influenzae): 0.125 µg/mL (≈ 0.316 µM)

**Q.** With `Cc1ccccc1CN(Cc1ccc2c(c1)OCCO2)C(=O)c1cnc(N)o1` as the compound, how does the IC50 [8] read?
**A.** Its IC50 is 7 nM.

**Q.** With `COc1cccc(OC)c1-c1cc2cnc(N)nc2nc1N` as the compound, how does the IC50 [7] read?
**A.** The IC50 was 28 nM.

**Q.** What about the MIC (Haemophilus influenzae) of the same compound?
**A.** The MIC was 0.125 µg/mL (≈ 0.42 µM).

**Q.** With `CC(C)(C)[C@@H](N)C(=O)NS(=O)(=O)OC[C@H]1O[C@@H](n2cnc3c(N)ncnc32)[C@H](O)[C@@H]1O` as the compound, how does the Ki (Pantothenate synthetase [1]) read?
**A.** Its Ki is 300 nM.

**Q.** With `CC(C)(C)C(O)C(=O)NS(=O)(=O)OC[C@H]1O[C@@H](n2cnc3c(N)ncnc32)[C@H](O)[C@@H]1O` (stereo partly specified) as the compound, how does the Ki (Pantothenate synthetase [1]) read?
**A.** Its Ki is 300 nM.

**Q.** With `CO[C@@H]1[C@@H](OC(N)=O)[C@@H](O)[C@H](Oc2ccc3c(O)c(NC(=O)c4ccc(O)c(CC=C(C)C)c4)c(=O)oc3c2C)OC1(C)C` [NOVOBIOCIN] as the compound, how does the Kd [9] read?
**A.** The Kd was 120 µM.

**Q.** And the IC50 [10]?
**A.** The IC50 was 210 nM.

**Q.** Which Kd (Pantothenate synthetase [11]) does the source give for `COc1ccc2c(c1)cc(CNC(=O)c1cc3ccccc3o1)n2CC(=O)O` here?
**A.** The Kd was 0.86 µM.

**Q.** Which MNEC [6] does the source give for `Cc1cc(=O)oc2cc(SCc3n[nH]c4cccc(OCc5ccc(C(C)(C)C)cc5)c34)ccc12` here?
**A.** The MNEC was 0.03 µg/mL.

**Q.** For `O=S(=O)(c1ccc(Cl)c2ccncc12)N1CCNCC1`, which Ki [2] is on record?
**A.** The Ki was 49 µM.

**Q.** Which Ki (Pantothenate synthetase [1]) does the source give for `COCC(C)(C)C(O)C(=O)NS(=O)(=O)OC[C@H]1O[C@@H](n2cnc3c(N)ncnc32)[C@H](O)[C@@H]1O` (stereo partly specified) here?
**A.** The Ki was 300 nM.

**Q.** Which Ki [2] does the source give for `NCCNS(=O)(=O)c1ccc(Cl)c2ccncc12` here?
**A.** Its Ki is 49 µM.

**Q.** For `NCCNS(=O)(=O)c1cccc2cnccc12`, which Ki [2] is on record?
**A.** The Ki was 49 µM.

**Q.** For `COc1ccc2c(c1)cc(C)n2CC(=O)O`, which Kd (Pantothenate synthetase [11]) is on record?
**A.** The Kd was 800 µM.

**Q.** Which Ki (Pantothenate synthetase [1]) does the source give for `CC(C)(C)C(=O)C(=O)NS(=O)(=O)OC[C@H]1O[C@@H](n2cnc3c(N)ncnc32)[C@H](O)[C@@H]1O` here?
**A.** The Ki was 300 nM.

**Q.** With `C[C@H]1CNCCN1S(=O)(=O)c1cccc2cnccc12` as the compound, how does the Ki [2] read?
**A.** The Ki was 49 µM.
